How the values were obtained:
Fusarium spp. [1] = assay: Field trial onion var. Elenka, emergence and bio-control under natural Fusarium spp. inoculum pressure (FC2020); type: in vivo; details: for number of emerged seedlings: control 182.50; for number of emerged plants: fourth survey (97 days after the sowing)
Procedure: (§1) In this experiment, onion var. Elenka was tested. The test experimental design was organized at randomized blocks for the 4 treatment types, each in duplicate. In the extended test carried out at an experimental field with high natural pressure of fungal inoculum of Fusarium spp., the experimental plots had the following dimensions: 1.8 m (width)×25 m (length) with four sowing rows per parcel The sowing was performed with mechanical seeder (mod. SPX 2015-Bassi Seminatrici, IT) at the density of 600,000 onion seeds per hectare. The surveys were carried out on a length of 20 meters, in the medial part of each respective plot. The recorded data of disease severity were subjected to statistical analysis of the variance (one-way ANOVA). The results were compared to the post hoc Tukey's HDS test.
In the preparation phase before the sowing, the fields were not treated with herbicides or fungicides. During the experimental test, carried out following the agronomical good practices, harmful bacteria and insects' infections were not observed, causing damages to the cultures during the experiment. The weeds were controlled according to the disciplinary regulation described in Cornell Vegetable Management Guidelines and Recommendations (Reiners et al., 2019).
Samples of symptomatic material such as onion roots and bulbs were withdrawn during the cultural season for isolating Fusarium-like fungal colonies and the subsequent identification thereof and confirmation of the etiological agent, through a preliminary analysis of conidial identification at the microscope, followed by a molecular analysis. The molecular identification was carried out through the amplification of the conserved region ITS by polymerase chain reaction (PCR) according to White et al., 1990. The amplification products were then purified and sequenced at Bio-Fab Research s.r.l. (Rome, IT). The nucleotide sequences of ribosomal DNA of the conserved region ITS (Internal Transcription Spaces) were then analyzed through the program for the research of sequence similarity in the international DNA database BLAST (Basic Local Alignment Search Tool;//www.ncbi.nlm.nih.gov/BLAST).

Fusarium spp. [2] = assay: Field trial onion var. Fundador, emergence and bio-control under natural Fusarium spp. inoculum pressure (FC2020); type: in vivo; details: first survey (18 days after the sowing), control 178.12
Procedure: as §1
For trial description, experimental design, agronomic practices, see Example 7. […]. The recorded data were subjected to statistical analysis of the variance (one-way ANOVA). The results were compared to the post hoc Tukey's HDS test.

onion var. Elenka = assay: Field trial onion var. Elenka, agronomic features (phenological development) (FC2020); type: in vivo, Allium cepa
Procedure: as §1
For the assay description, experimental design, agronomic practices, see Example 7. Before sowing, the fields were not treated with herbicides or fungicides. During the experimental field trial, carried out according to the best agronomical practices, harmful bacteria and insects' infections were not observed, causing damages to the cultures during the experiment. The weeds were managed according to the disciplinary regulations described in Cornell Vegetable Management Guidelines and Recommendations (Reiners et al., 2019). […]

fennel var. Crono [3] = assay: Field trial fennel var. Crono, emergence, germination and vigor (AQ2021); type: in vivo, Foeniculum vulgare; details: for average vigor index: scale 1-4 (Table 8)
Procedure: For the field trial description, experimental design, and the applied agronomic practices, see Example 10.
For this experiment, sowing was carried out with mechanical seeder. The first survey was carried out 14 days after the sowing, assessing the whole length of each plot: 1.5 m (width)×100 m (length) with four sowing rows per plot. The second survey was carried out one month after sowing and the third and last survey two months after sowing, assessing both number of emerged plants and vigor according to the assessment scale described in Table 8. The recorded data were subjected to the statistical analysis of the variance (one-way ANOVA). The results were compared to the post hoc Tukey's HDS test.

fennel var. Crono [4] = assay: Commercial field trial fennel var. Crono, emergence and germination (AQ2020); type: in vivo, Foeniculum vulgare
Description: In this experiment, the fennel var. Crono was used, in order to study the effect of Streptomyces sp. DLS 1568, applied as microbial coating agent, on the emergence and germination of the crop.
The test experimental design was organized at randomized blocks for the 4 treatment types, each in duplicate (replicate). In the experimental test carried out at a plot, the experimental parcels had the following dimensions: 1.5 m (width)×100 m (length) with four sowing rows per plot. The sowing was carried out with a mechanical seeder. During the experimental field trials, conducted according to the best agronomical practices, harmful bacteria and insects' infections were not observed, causing damages to the cultures during the experiment. Weeds were controlled according to the farms' integrated weed management.
The first survey was carried out 20 days after the sowing, assessing the whole length of each plots. The second survey was carried out 32 days after seed sowing and the third and last survey was done after one month from the second survey. The recorded data were subjected to the statistical analysis of the variance (one-way ANOVA). The results were compared to the post hoc Tukey's HDS test.

[5] = first survey (18 days after the sowing)
[6] = second survey (42 days after the sowing)

SMILES	increase of the germinal emergence with respect to the control (Fusarium spp. [1]; [5]) [%]	increase of the germinal emergence with respect to the treatment with Streptomyces sp. SA51 (Fusarium spp. [1]; [5]) [%]	increase of the germinal emergence with respect to the treatment with fludioxonil (Fusarium spp. [1]; [5]) [%]	number of emerged seedlings (Fusarium spp. [1]; [5])	number of emerged plants (Fusarium spp. [1])	increase of number of emerged plants with respect to Streptomyces sp. SA51 (Fusarium spp. [1]; [6]) [%]	increase of number of emerged plants with respect to fludioxonil (Fusarium spp. [1]; [6]) [%]	number of plants emerged (Fusarium spp. [1]; [6])	number of plants emerged (Fusarium spp. [2])	number of leaves (onion var. Elenka; third survey)	Number of emerged plants, Survey 1 Average value (fennel var. Crono [3]; AQ2021, 14 days after the sowing, control 313.00)	Number of emerged plants, Survey 2 Average value (fennel var. Crono [3]; AQ2021, one month after sowing, after manual thinning, control 180.75)	average vigor index (fennel var. Crono [3]; AQ2021, second survey, control 2.34)	average vigor index (fennel var. Crono [3]; AQ2021, third survey, control 2.71)	Number of emerged plants, Survey 3 Average value (fennel var. Crono [3]; AQ2021, two months after sowing, control 173.00)	Number of emerged plants, Survey 1 Average value (fennel var. Crono [4]; AQ2020, 20 days after the sowing, control 339.50)	Number of emerged plants, Survey 2 Average value (fennel var. Crono [4]; AQ2020, 32 days after sowing, after manual thinning, control 194.40)	Number of emerged plants, Survey 3 Average value (fennel var. Crono [4]; AQ2020, one month from the second survey, control 187.00)	plant height (onion var. Elenka; second survey) [cm]
O=[O+][O-] [Ozone]	17	26	22	214.63	119.17	51	41	207.88	185.87	4.69									
N#Cc1c[nH]cc1-c1cccc2c1OC(F)(F)O2 [Fludioxonil, fludioxonil]				175.63	72.75			147.00	210.12		323.88	205.00	2.49	3.01	186.63	339.50	217.30	198.62	10.11
